Assay results from US5424424A, “Tartaric acid derivatives of substituted dibenzoxazepine compounds, pharmaceutical compositions and methods of use” (G. D. Searle & Co., priority 1993, dated 1995).
Counter-ions that a name gives are not always drawn.

Tests used:
mice = assay: Writhing Assay (phenylbenzoquinone-induced writhing, analgesia); format: in vivo, Charles River male albino mice; conditions: 30 mg per kilogram, intragastric, 30 minutes before PBQ i.p.; analgesia = writhes equal to or less than one-half the median of saline control
Excerpt: The Writhing Assay is one of the most widely-used experimental procedures for measuring the analgesic activity of different narcotic and nonnarcotic analgesic agents, and involves the continuous, chemically-induced pain of visceral origin to an animal, such as a mouse or rat. [Gyires et al., Arch. int. Pharmacodyn, 267, 131-140 (984); C. Vander Wende et al., Fed. Proc., 15, 494 (1956); Koster et al., Fed. Proc., 18, 412 (1959); and Witken et al., J. Pharmacol. exp. Ther., 133, 400-408 (1961).] Chemicals which may be used to induce this pain include phenylbenzoquinone (PBQ) and acetic acid. As a result of the chemical irritation to the animal, a characteristic stretching and writhing of the animal (dorsiflexion of the animal's back, extension of its hindlimbs and the strong contraction of its abdominal musculature) will generally occur. […] Drugs which reduce the number of writhes of the animal appear to restore the normal nociceptive threshold of the animal.
Charles River male albino mice, weighing 20 to 30 grams, were used in this assay.
Thirty minutes after intragastric administration to ten mice of 30 mg per kilogram of body weight of a compound of the present invention ("test compound"), […] per 10 g of body weight of a 0.025% w/v solution of PB was injected intraperitoneally into each mouse. Ten mice which were given saline in place of a test compound of the invention were used as a control group.
Five minutes later, each mouse was individually placed into a glass beaker for observation, and the number of writhes occurring during the following ten-minute period was counted.
A test compound was considered to have produced analgesia in a mouse if, in accordance with the conditions set forth above, and under the test criteria employed for this assay, after the administration of 30 mg per kilogram of body weight of a compound of the present invention to the mouse, the number of writhes elicited by a mouse injected with PBQ was equal to, or less than, one-half the median number of writhes recorded for the saline-treated control group of mice that day, as described by Taber in "Predictive Value of Analgesic Assays in Mice and Rats," Advances in Biochemical Psychopharmacology, 8, 191 (1974).
The results for the particular compounds of the present invention analyzed in this assay, and discussed in the examples identified below which correspond thereto, are presented in Table 1 hereinbelow as fractions under the heading "WRITHING ASSAY." The fractions indicate the number of mice out of ten in which a test compound produced analgesia.

[1] = system: prostaglandin E2-induced contractions of segments of guinea pig ileum; assay: Prostaglandin (PGE) Antagonism Assay in guinea pig ileum; format: tissue-based, Male albino guinea pigs; conditions: dose ratio of prostaglandin E2 EC50 values; initial concentration 3 micromolar test compound, 37° C., incubated thirty minutes
Protocol: In order to determine the effectiveness of several of the compounds of the present invention ("test compounds") as prostaglandin E2 antagonists,a prostaglandin antagonism assay was conducted, as described below, to determine the ability of these compounds to inhibit prostaglandin E2 -induced contractions of segments of guinea pig ileum.
Male albino guinea pigs weighing 200 to 500 grams were sacrificed by cervical dislocation. The ilea were then quickly removed from the guinea pigs and placed in a modified Tyrode solution, a solution which is known to those skilled in the art, containing one-half of the usual amount of magnesium ions.
Segments of ileum about 2 cm long were then cut and mounted in a 10 mL tissue bath containing the modified Tyrode solution. The solution was maintained at 37° C. and aerated with a gaseous mixture of 95% oxygen and 5% carbon dioxide. Data for a control prostaglandin E2 dose response curve plotting concentration of prostaglandin E2 versus the intensity of contractions, detected isotonically, was then obtained by experimentally adjusting the dose of the prostaglandin E2 being injected into the tissue bath, in a manner known by those of skill in the art.
Solutions or suspensions containing an initial concentration (3 micromolar) of a test compound in modified Tyrode solution ("test solutions/suspensions") were then separately substituted for the control bath solution. Each test solution/suspension was then kept in constant contact with the ileum tissue, except for brief periods to drain the bath in preparation for rinsing with fresh test solution/suspension. A second prostaglandin E2 dose response curve was then generated for prostaglandin E2 in the presence of a test compound.
A control dose response curve is produced in isolated segments of guinea pig ileum mounted in an automated apparatus with six concentrations of prostaglandin E2. A solution or suspension of test compound is substituted for the control bathing solution and is incubated for thirty minutes. An additional prostaglandin E2 dose response curve is then performed in the presence of the test compound. A dose ratio is calculated from the EC50 values obtained from duplicate replications on each concentration of the test compound.
A dose ratio of EC50 doses was calculated from the results of each test in a manner known by those of skill in the art, and described above.
The compounds of the present invention which were tested in this assay, and for which results are presented in Table 1, correspond to the particular examples specified in Table 1.

Compound	WRITHING ASSAY I.G.: number of mice out of ten in which a test compound produced analgesia (mice)	PGE ANTAGONISM IN GUINEA PIG ILEUM Dose Ratio [1]
CC(=O)O[C@H](C(=O)NCc1ccncc1)[C@H](OC(C)=O)C(=O)N1Cc2ccccc2Oc2ccc(Cl)cc21 [Example 3, αS,βS-Bis(acetyloxy)-8-chloro-γ-oxo-N-(4-pyridinylmethyl)-dibenz[b,f][1,4]oxazepine-10(11H)-butanamide, hydrochloride]	5/10	1.3
CC(=O)O[C@@H](C(=O)NCc1cccnc1)[C@@H](OC(C)=O)C(=O)N1Cc2ccccc2Oc2ccc(Cl)cc21 [Example 8, αR,βR-Bis(acetyloxy)-8-chloro-γ-oxo-N-(3-pyridinylmethyl)dibenz[b,f][1,4]oxazepine-10(11H)]-butanamide, hydrochloride]	6/10	2.4
CC(=O)O[C@@H](C(=O)NCc1ccccn1)[C@@H](OC(C)=O)C(=O)N1Cc2ccccc2Oc2ccc(Cl)cc21 [Example 9, αR,βR-Bis(acetyloxy)-8-chloro-γ-oxo-N-(2-pyridinylmethyl)dibenz[b,f][1,4]oxazepine-10(11H)-butanamide, hydrochloride]	5/10	1.1
CC(=O)O[C@@H](C(=O)NCc1ccncc1)[C@@H](OC(C)=O)C(=O)N1Cc2ccccc2Oc2ccc(Cl)cc21 [Example 7, αR,βR-Bis(acetyloxy)-8-chloro-γ-oxo-N-(4-pyridinylmethyl)dibenz[b,f][1,4]oxazepine-10(11H)-butanamide, hydrochloride]	8/10	1.2
CC(=O)O[C@H](C(=O)NCc1cccnc1)[C@H](OC(C)=O)C(=O)N1Cc2ccccc2Oc2ccc(Cl)cc21 [Example 4, αS,βS-Bis(acetyloxy)-8-chloro-γ-oxo-N-(3-pyridinylmethyl)-dibenz[b,f][1,4]oxazepine-10(11H)-butanamide, hydrochloride]	9/10	0.74
CC(=O)O[C@H](C(=O)NCc1ccccn1)[C@H](OC(C)=O)C(=O)N1Cc2ccccc2Oc2ccc(Cl)cc21 [Example 5, αS,βS-Bis(acetyloxy)-8-chloro-γ-oxo-N-(2-pyridinylmethyl)dibenz[b,f][1,4]oxazepine-10(11H)-butanamide, hydrochloride]	5/10	1.7
CC(=O)O[C@H](C(=O)NCCN(C)C)[C@H](OC(C)=O)C(=O)N1Cc2ccccc2Oc2ccc(Cl)cc21 [Example 2, αS,βS-Bis(acetyloxy)-8-chloro-N-[2-(dimethylamino)ethyl]-γ-oxodibenz[b,f][1,4]oxazepine-10(11H)-butanamide, monohydrochloride]	0/10	–
